Laboratory results as given in US20040241239A1, “Mixed complexes for masking the taste of bitter active substances” (priority 2001, published 2004).
Values after ≈ are worked out from the molar mass of the structure shown.

Test: Solubility of HMR 3647
Type: physicochemical
Experimental: HMR 3647 has the chemical formula C43H65N5O10 and has a molecular weight of 812.0 g/mol. […] At acidic pH, the solubility can be increased to 80 mg/ml, since the protonated cation is formed at this pH.

## CC[C@H]1OC(=O)[C@H](C)C(=O)[C@H](C)[C@@H](O[C@@H]2O[C@H](C)C[C@H](N(C)C)[C@H]2O)[C@](C)(OC)C[C@@H](C)C(=O)[C@H](C)[C@H]2N(CCCCn3cnc(-c4cccnc4)c3)C(=O)O[C@]12C [HMR 3647]
Aqueous medium at acidic pH, aqueous buffer, acidic pH, protonated cation
  solubility: 80 mg/mL (≈ 98.5 mM)
water
  water solubility: very poorly water-soluble
